This note sets out measurements from patent US10954252B1, “Inhibitors of human immunodeficiency virus replication” (ViiV HEALTHCARE UK (NO.5) LIMITED, priority 2017, dated 2021).

Series [1] deals with recombinant NL4-3 virus (nef section replaced with Renilla luciferase gene) in MT-2 cells. Put plainly: HIV cell culture assay (antiviral activity, luciferase readout). Format: cell-based. The note with it: MT-2 cells infected for 4-5 days with recombinant NL4-3 luciferase virus. The procedure, abridged:
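Serially diluted compounds were present throughout a 4-5 day infection of MT-2 cells by recombinant NL4-3 whose nef region partly encodes Renilla luciferase. Antiviral activity was taken from live-cell luciferase signal, with the 50% effective concentration fitted by the exponential median effect equation.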

Series [2] in a line: Compound cytotoxicity, XTT-based colorimetric assay. The class given is cell-based. The conditions noted are these: human, uninfected MT2 cells. A digest of the protocol:
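XTT colorimetric read-out on day 4 gave CC50 values, using MT2 cells left uninfected but otherwise handled as in the antiviral assay.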

On to `CC(C)(c1ccc2c(=O)n(-c3ccc(Cl)c4c(NS(C)(=O)=O)nn(CC(F)F)c34)c([C@H](Cc3cc(F)cc(F)c3)NC(=O)Cn3nc(C(F)F)c4c3C(F)(F)[C@@H]3C[C@H]43)nc2c1)S(C)(=O)=O` [Example 213, N—((S)-1-(3-(4-chloro-1-(2,2-difluoroethyl)-3-(methylsulfonamido)-1H-indazol-7-yl)-7-(2-(methylsulfonyl)propan-2-yl)-4-oxo-3,4-dihydroquinazolin-2-yl)-2-(3,5-difluorophenyl)ethyl)-2-((3bS,4aR)-3-(difluoromethyl)-5,5-difluoro-3b,4,4a,5-tetrahydro-1H-cyclopropa[3,4]cyclopenta[1,2-c]pyrazol-1-yl)acetamide], for which the EC50 (as a rule, the concentration that produces a half-maximal response) in series [1] (Renilla, NL43, Table 1a) was 0.28 nM. Further, the CC50 (in general, the concentration at which the toxic effect on the cells reaches its halfway point) at 4 days in series [2] (Table 1a, day 4, XTT) is above 1000 nM.
The like results for `COc1ccc2c(=O)n(-c3ccc(Cl)c4c(NS(C)(=O)=O)nn(C)c34)c(C(Cc3cc(F)cc(F)c3)NC(=O)Cn3nc(C(F)F)c4c3C(F)(F)[C@@H]3C[C@H]43)nc2c1F` (some centres unmarked) [Example 75] were, in that order, 109 nM and above 1000 nM.
On the same counts, the results for `CC(C)n1nc(NS(C)(=O)=O)c2c(Cl)ccc(-n3c(C(Cc4cc(F)cc(F)c4)NC(=O)Cn4nc(C(F)F)c5c4C(F)(F)[C@@H]4C[C@H]54)nc4ncccc4c3=O)c21` (mixture of isomers) [Example 43.1] are 30 nM and above 10000 nM.
On the same counts, the results for `Cn1nc(NS(C)(=O)=O)c2c(Cl)ccc(-n3c([C@H](Cc4cc(F)cc(F)c4)NC(=O)Cn4ccc(N)n4)nc4ncccc4c3=O)c21` (single isomer, unassigned) [Example 50.2] are 32.1 nM and above 1000 nM.
For the compound `Cn1nc(NS(C)(=O)=O)c2c(Cl)ccc(-n3c([C@H](Cc4cc(F)cc(F)c4)NC(=O)Cn4nc(C(F)F)c5c4C(F)(F)[C@@H]4C[C@H]54)nc4c(C(N)=O)cccc4c3=O)c21` (single isomer, unassigned) [Example 106], the EC50 in series [1] (Renilla, NL43, Table 1a) is 23.8 nM. The compound further registered a CC50 at 4 days in series [2] (Table 1a, day 4, XTT) above 1000 nM.
Turning to `Cn1nc(NS(C)(=O)=O)c2c(Cl)ccc(-n3c(C(Cc4cc(F)cc(F)c4)NC(=O)Cn4nc(C(F)F)c5c4C(F)(F)[C@@H]4C[C@H]54)nc4nc(C#N)ccc4c3=O)c21` (mixture of isomers) [Example 40.1, N-(1-(3-(4-chloro-1l-methyl-3-(methylsulfonamido)-1H-indazol-7-yl)-7-cyano-4-oxo-3,4-dihydropyrido[2,3-d]pyrimidin-2-yl)-2-(3,5-difluorophenyl)ethyl)-2-((3bS,4aR)-3-(difluoromethyl)-5,5-difluoro-3b,4,4a,5-tetrahydro-1H-cyclopropa[3,4]cyclopenta[1,2-c]pyrazol-1-yl)acetamide], the EC50 in series [1] (Renilla, NL43, Table 1a) came out at 0.58 nM. For the same compound, the CC50 at 4 days in series [2] (Table 1a, day 4, XTT) is above 1000 nM.
As to `Cn1nc(NS(C)(=O)=O)c2c(Cl)ccc(-n3c([C@H](Cc4cc(F)cc(F)c4)NC(=O)Cn4nc(C(F)F)c5c4C(F)(F)[C@@H]4C[C@H]54)nc4cc(S(C)(=O)=O)ccc4c3=O)c21` (mixture of isomers) [Example 199, N—((S)-1-(3-(4-chloro-1-methyl-3-(methylsulfonamido)-1H-indazol-7-yl)-7-(methylsulfonyl)-4-oxo-3,4-dihydroquinazolin-2-yl)-2-(3,5-difluorophenyl)ethyl)-2-((3bS,4aR)-3-(difluoromethyl)-5,5-difluoro-3b,4,4a,5-tetrahydro-1H-cyclopropa[3,4]cyclopenta[1,2-c]pyrazol-1-yl)acetamide], in series [1] (Table 1a), the half-maximal effective concentration (EC50) was determined as 32.8 nM. Further, in series [2] (Table 1a, day 4, XTT), the CC50 at 4 days is above 1000 nM.
With `Cn1nc(NS(C)(=O)=O)c2c(Cl)ccc(-n3c([C@H](Cc4cc(F)cc(F)c4)NC(=O)Cn4nc(C(F)F)c5c4C(F)(F)[C@@H]4C[C@H]54)nc4cc(Cl)ccc4c3=O)c21` (mixture of isomers) [Example 167, N—((S)-1-(7-chloro-3-(4-chloro-1-methyl-3-(methylsulfonamido)-1H-indazol-7-yl)-4-oxo-3,4-dihydroquinazolin-2-yl)-2-(3,5-difluorophenyl)ethyl)-2-((3bS,4aR)-3-(difluoromethyl)-5,5-difluoro-3b,4,4a,5-tetrahydro-1H-cyclopropa[3,4]cyclopenta[1,2-c]pyrazol-1-yl)acetamide], the 50% effective concentration (EC50) in series [1] (Table 1a) came out at 80.5 nM. Also, the cytotoxic concentration (CC50) at 4 days in series [2] (Table 1a, day 4, XTT) is above 1000 nM.
For `COc1ccc(-n2c([C@H](Cc3cc(F)cc(F)c3)NC(=O)Cc3c[nH]c4ccc(O)cc34)nc3ccccc3c2=O)cc1` [Example 10.30], in series [1] (Renilla, NL43, Table 1), the EC50 stood at 8 nM. Also, the CC50 at 4 days in series [2] (Table 1, day 4, XTT) was above 10000 nM.
Regarding `Cc1ccc2c(=O)n(-c3ccc(Cl)c4c(NS(C)(=O)=O)nn(C)c34)c([C@H](Cc3cc(F)cc(F)c3)NC(=O)Cn3nc(C(F)F)c4c3C(F)(F)[C@@H]3C[C@H]43)nc2n1` (mixture of isomers) [Example 41.2, N-[(1S)-1-[3-(4-chloro-3-methanesulfonamido-1-methyl-1H-indazol-7-yl)-7-methyl-4-oxo-3H,4H-pyrido[2,3-d]pyrimidin-2-yl]-2-(3,5-difluorophenyl)ethyl]-2-[(2S,4R)-9-(difluoromethyl)-5,5-difluoro-7,8-diazatricyclo[4.3.0.0^2,4]nona-1(6),8-dien-7-yl]acetamide], the EC50 in series [1] (Renilla, NL43, Table 1a) came out at 0.022 nM. Also, the CC50 at 4 days in series [2] (Table 1a, day 4, XTT) is above 10000 nM.
With `COc1ccc2c(=O)n(-c3ccc(Cl)c4c(NS(C)(=O)=O)nn(CC(F)F)c34)c(C(Cc3cc(F)cc(F)c3)NC(=O)Cn3nc(C(F)F)c4c3C(F)(F)[C@@H]3C[C@H]43)nc2n1` (single isomer, unassigned) [Example 54.1], in series [1] (Renilla, NL43, Table 1a), the EC50 stood at 43.4 nM. Besides, the CC50 at 4 days in series [2] (Table 1a, day 4, XTT) was above 1000 nM.
The like results for `N#Cc1cnc2nc([C@H](Cc3cc(F)cc(F)c3)NC(=O)Cn3nc(C(F)F)c4c3C(F)(F)[C@@H]3C[C@H]43)n(-c3ccc(C4CC4)cc3)c(=O)c2c1` [Example 39, N-[(1S)-1-[6-cyano-3-(4-cyclopropylphenyl)-4-oxo-3H,4H-pyrido[2,3-d]pyrimidin-2-yl]-2-(3,5-difluorophenyl)ethyl]-2-[(2S,4R)-9-(difluoromethyl)-5,5-difluoro-7,8-diazatricyclo[4.3.0.0^2,4]nona-1(6),8-dien-7-yl]acetamide] were, in that order, 3.76 nM and 2000 nM.
As to `O=C(Cn1nc(C(F)F)c2c1C(F)(F)[C@@H]1C[C@H]21)NC(Cc1cc(F)cc(F)c1)c1nc2cn[nH]c2cc1-c1ccc(OC(F)F)cc1` (single isomer, unassigned) [Example 3.10], the EC50 in series [1] (Renilla, NL43, Table 1) amounted to 320 nM. In addition, the CC50 at 4 days in series [2] (Table 1, day 4, XTT) is 6800 nM.
For the compound `O=C(Cn1nc(C(F)F)c2c1C(F)(F)[C@@H]1C[C@H]21)N[C@@H](Cc1cc(F)cc(F)c1)c1nc2ccccc2c(=O)n1-c1ccc(S(=O)(=O)N2CCOCC2)cc1` [Example 165, 2-((3bS,4aR)-3-(difluoromethyl)-5,5-difluoro-3b,4,4a,5-tetrahydro-1H-cyclopropa[3,4]cyclopenta[1,2-c]pyrazol-1-yl)-N—((S)-2-(3,5-difluorophenyl)-1-(3-(4-(morpholinosulfonyl)phenyl)-4-oxo-3,4-dihydroquinazolin-2-yl)ethyl)acetamide], in series [1] (Renilla, NL43, Table 1a), the half-maximal effective concentration (EC50) was 0.23 nM. In addition, the CC50 at 4 days in series [2] (Table 1a, day 4, XTT) was above 10000 nM.
Turning to `O=C(Cn1nc(C(F)F)c2c1C(F)(F)[C@@H]1C[C@H]21)N[C@@H](Cc1cc(F)cc(F)c1)c1nc2ncccc2c(=O)n1-c1ccc(Cl)c2c(NS(=O)(=O)C3CC3)nn(CC(F)F)c12` (mixture of isomers) [Example 45.2, N-[(1S)-1-{3-[4-chloro-3-cyclopropanesulfonamido-1-(2,2-difluoroethyl)-1H-indazol-7-yl]-4-oxo-3H,4H-pyrido[2,3-d]pyrimidin-2-yl}-2-(3,5-difluorophenyl)ethyl]-2-[(2S,4R)-9-(difluoromethyl)-5,5-difluoro-7,8-diazatricyclo[4.3.0.0^2,4]nona-1(6),8-dien-7-yl]acetamide], the EC50 in series [1] (Renilla, NL43, Table 1a) is 0.024 nM. For the same compound, the CC50 at 4 days in series [2] (Table 1a, day 4, XTT) was above 1000 nM.
For `COc1ccc2c(=O)n(-c3ccc(Cl)c4c(NS(C)(=O)=O)nn(C)c34)c([C@H](Cc3cc(F)cc(F)c3)NC(=O)Cn3nc(C(F)F)c4c3C(F)(F)C3CC43)nc2n1` (stereo in doubt) [Example 13.2, N—((S)-1-(3-(4-chloro-1-methyl-3-(methylsulfonamido)-1H-indazol-7-yl)-7-methoxy-4-oxo-3,4-dihydropyrido[2,3-d]pyrimidin-2-yl)-2-(3,5-difluorophenyl)ethyl)-2-((3bS,4aR)-3-(difluoromethyl)-5,5-difluoro-3b,4,4a,5-tetrahydro-1H-cyclopropa[3,4]cyclopenta[1,2-c]pyrazol-1-yl)acetamide], in series [1] (Renilla, NL43, Table 1), the EC50 came out at 18 nM. The compound also had a CC50 at 4 days in series [2] (Table 1, day 4, XTT) above 10000 nM.
For the compound `CC(C)c1ccc(-n2c([C@H](Cc3cc(F)cc(F)c3)NC(=O)Cc3c[nH]c4ccc(O)cc34)nc3ccccc3c2=O)cn1` [Example 10.33], the EC50 in series [1] (Renilla, NL43, Table 1) amounted to 49 nM. The compound also gave a cytotoxic concentration (CC50) at 4 days in series [2] (Table 1, day 4, XTT) above 10000 nM.
Regarding `COC(=O)c1cccc(-c2cc3[nH]ncc3nc2[C@H](Cc2cc(F)cc(F)c2)NC(=O)Cn2nc(C(F)F)c3c2C(F)(F)[C@@H]2C[C@H]32)c1` [Example 10.8, Methyl 3-(5-((S)-1-(2-((3bS,4aR)-3-(difluoromethyl)-5,5-difluoro-3b,4,4a,5-tetrahydro-1H-cyclopropa[3,4]cyclopenta[1,2-c]pyrazol-1-yl)acetamido)-2-(3,5-difluorophenyl)ethyl)-1H-pyrazolo[4,3-b]pyridin-6-yl)benzoate], the EC50 in series [1] (Renilla, NL43, Table 1) was 1200 nM. The same compound gave a CC50 at 4 days in series [2] (Table 1, day 4, XTT) above 10000 nM.
In the case of `Cn1nc(NS(C)(=O)=O)c2c(Cl)ccc(-n3c([C@H](Cc4cc(F)cc(F)c4)NC(=O)Cn4ccc(C5CC5)n4)nc4ccc(OC(F)(F)F)cc4c3=O)c21` (single isomer, unassigned) [Example 152], in series [1] (Table 1a), the EC50 came to 173 nM. In addition, the CC50 at 4 days in series [2] (Table 1a, day 4, XTT) was above 1000 nM.
